For 36 compounds, IC50 results are on record in US10590078B2, “Sodium channel blockers” (Daewoong Pharmaceutical Co., Ltd., priority 2015, dated 2020).

This experiment has as its target human sodium ion channel 1.7 (hNav1.7) (Homo sapiens, UniProt Q15858). Put plainly: Blocking effect against sodium ion channel Nav1.7, IonFlux16 auto patch clamp in hNav1.7 HEK293 cells. Type of experiment: cell-based. Particulars: hNav1.7 HEK293 cells; inhibition of peak current after 50 seconds treatment; eight concentrations; read-out: IC50. (In general: The patch-clamp technique gives a direct electrical read-out from membranes.)

Sequence of human sodium ion channel 1.7 (hNav1.7) (Q15858 whole entry): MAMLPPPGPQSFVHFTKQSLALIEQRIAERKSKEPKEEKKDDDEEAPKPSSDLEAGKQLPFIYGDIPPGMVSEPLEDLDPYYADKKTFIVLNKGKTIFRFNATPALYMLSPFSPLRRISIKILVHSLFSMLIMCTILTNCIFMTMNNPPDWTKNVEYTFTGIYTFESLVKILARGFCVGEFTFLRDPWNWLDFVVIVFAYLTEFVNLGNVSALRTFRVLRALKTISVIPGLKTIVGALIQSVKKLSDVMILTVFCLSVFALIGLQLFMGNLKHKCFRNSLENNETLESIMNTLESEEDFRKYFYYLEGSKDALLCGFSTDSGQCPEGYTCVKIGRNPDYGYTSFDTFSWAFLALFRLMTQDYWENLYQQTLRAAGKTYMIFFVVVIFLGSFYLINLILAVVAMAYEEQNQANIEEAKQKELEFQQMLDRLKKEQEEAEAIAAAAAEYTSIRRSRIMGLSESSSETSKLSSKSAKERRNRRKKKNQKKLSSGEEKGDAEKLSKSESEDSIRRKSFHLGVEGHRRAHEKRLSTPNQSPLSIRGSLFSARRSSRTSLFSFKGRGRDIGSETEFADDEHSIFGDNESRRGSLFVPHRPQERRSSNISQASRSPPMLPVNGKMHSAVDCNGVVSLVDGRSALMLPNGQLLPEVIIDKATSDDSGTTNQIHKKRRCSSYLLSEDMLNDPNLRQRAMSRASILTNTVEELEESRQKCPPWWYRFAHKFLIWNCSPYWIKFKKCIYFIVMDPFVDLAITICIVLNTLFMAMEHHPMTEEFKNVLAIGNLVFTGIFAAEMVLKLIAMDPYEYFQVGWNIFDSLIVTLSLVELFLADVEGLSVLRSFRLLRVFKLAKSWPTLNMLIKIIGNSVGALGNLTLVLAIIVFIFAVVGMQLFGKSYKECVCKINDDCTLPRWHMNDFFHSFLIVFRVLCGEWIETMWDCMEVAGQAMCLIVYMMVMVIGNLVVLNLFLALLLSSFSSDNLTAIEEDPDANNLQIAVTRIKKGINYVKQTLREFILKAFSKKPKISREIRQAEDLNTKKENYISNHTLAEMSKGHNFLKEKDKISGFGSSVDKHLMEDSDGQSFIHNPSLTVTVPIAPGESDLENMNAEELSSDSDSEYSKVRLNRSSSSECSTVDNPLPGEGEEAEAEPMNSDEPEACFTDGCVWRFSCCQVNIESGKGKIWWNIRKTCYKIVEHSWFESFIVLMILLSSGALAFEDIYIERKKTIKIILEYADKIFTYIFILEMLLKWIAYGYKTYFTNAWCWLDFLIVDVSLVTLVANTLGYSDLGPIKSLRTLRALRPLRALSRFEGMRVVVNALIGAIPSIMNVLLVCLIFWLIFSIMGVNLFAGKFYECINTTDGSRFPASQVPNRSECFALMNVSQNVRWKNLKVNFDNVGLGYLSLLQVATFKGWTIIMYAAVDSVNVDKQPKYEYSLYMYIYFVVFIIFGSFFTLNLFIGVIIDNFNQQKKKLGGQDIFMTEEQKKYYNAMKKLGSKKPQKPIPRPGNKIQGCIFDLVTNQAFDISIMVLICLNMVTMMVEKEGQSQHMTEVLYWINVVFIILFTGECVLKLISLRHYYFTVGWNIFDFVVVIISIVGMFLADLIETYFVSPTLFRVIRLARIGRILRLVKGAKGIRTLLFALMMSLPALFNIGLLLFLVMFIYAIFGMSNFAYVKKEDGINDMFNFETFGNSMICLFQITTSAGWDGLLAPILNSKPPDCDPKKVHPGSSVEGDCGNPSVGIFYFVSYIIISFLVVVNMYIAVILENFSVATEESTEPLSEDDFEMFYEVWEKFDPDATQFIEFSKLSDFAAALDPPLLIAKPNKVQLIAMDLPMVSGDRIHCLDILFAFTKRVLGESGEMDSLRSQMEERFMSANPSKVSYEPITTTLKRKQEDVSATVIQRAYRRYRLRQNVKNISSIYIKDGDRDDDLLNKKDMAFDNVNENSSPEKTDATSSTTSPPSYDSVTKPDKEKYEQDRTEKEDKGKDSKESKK

On to `Cc1nn(-c2cc(F)c(C(=O)NS(C)(=O)=O)cc2Cl)c2ccc(Cl)cc12` [Example 1, 5-chloro-4-(5-chloro-3-methyl-1H-indazol-1-yl)-2-fluoro-N-(methylsulfonyl)benzamide], for which the IC50 (commonly the point on the concentration scale where inhibition reaches its midpoint) is above 10 µM.

For the compound `CS(=O)(=O)NC(=O)c1cc(Cl)c(-n2ncc3cc(Cl)ccc32)cc1F` [Example 2, 5-chloro-4-(5-chloro-1H-indazol-1-yl)-2-fluoro-N-(methylsulfonyl)benzamide], the IC50 worked out at 5.39 µM. To `CS(=O)(=O)NC(=O)c1cc(Cl)c(-n2nc(Cl)c3cc(Cl)cnc32)cc1F` [Example 3, 5-chloro-4-(3,5-dichloro-1H-pyrazolo[3,4-b]pyridin-1-yl)-2-fluoro-N-(methylsulfonyl)benzamide] belongs 1.13 µM; to `CS(=O)(=O)NC(=O)c1ccc(-n2nc(Cl)c3cc(Cl)ccc32)cc1F` [Example 4, 4-(3,5-dichloro-1H-indazol-1-yl)-2-fluoro-N-(methylsulfonyl)benzamide], above 10 µM; to `CS(=O)(=O)NC(=O)c1cc(Cl)c(-n2nc(N)c3cc(Cl)ccc32)cc1F` [Example 5, 4-(3-amino-5-chloro-1H-indazol-1-yl)-5-chloro-2-fluoro-N-(methylsulfonyl)benzamide], above 10 µM.

In the case of `CC(=O)Nc1nn(-c2cc(F)c(C(=O)NS(C)(=O)=O)cc2Cl)c2ccc(Cl)cc12` [Example 6, 4-(3-acetamido-5-chloro-1H-indazol-1-yl)-5-chloro-2-fluoro-N-(methylsulfonyl)benzamide], the IC50 is above 10 µM.

`CN(C)S(=O)(=O)NC(=O)c1cc(Cl)c(-n2nc(Cl)c3cc(Cl)ccc32)cc1F` [Example 7, 5-chloro-4-(3,5-dichloro-1H-indazol-1-yl)-N—(N,N-dimethylsulfamoyl)-2-fluorobenzamide]: the IC50 stood at 0.227 µM.

Consider `CS(=O)(=O)NC(=O)c1ccc(-n2nc(Cl)c3cc(Cl)ccc32)c(Cl)c1` [Example 8, 3-chloro-4-(3,5-dichloro-1H-indazol-1-yl)-N-(methylsulfonyl)benzamide], for which the IC50 came to 0.88 µM. With `CS(=O)(=O)NC(=O)c1cc(Cl)c(-n2nc(Cl)c3cc(Cl)ccc32)cc1F` [Example 9, 5-chloro-4-(3,5-dichloro-1H-indazol-1-yl)-2-fluoro-N-(methylsulfonyl)benzamide] the figure was 0.117 µM; with `CS(=O)(=O)NC(=O)c1cc(Cl)c(-n2ncc3cc(Cl)ncc32)cc1F` [Example 10, 5-chloro-4-(5-chloro-1H-pyrazolo[3,4-c]pyridin-1-yl)-2-fluoro-N-(methylsulfonyl)benzamide], above 10 µM. Turning to `CS(=O)(=O)NC(=O)c1cc(Cl)c(-n2nc(Cl)c3cc(Cl)ncc32)cc1F` [Example 11, 5-chloro-4-(3,5-dichloro-1H-pyrazolo[3,4-c]pyridin-1-yl)-2-fluoro-N-(methylsulfonyl)benzamide], the IC50 is above 10 µM. To `CS(=O)(=O)NC(=O)c1ccc(-n2nc(Cl)c3cc(O)ccc32)cc1` [Example 12, 4-(3-chloro-5-hydroxy-1H-indazol-1-yl)-N-(methylsulfonyl)benzamide] belongs above 10 µM.

Take `CS(=O)(=O)NC(=O)c1cc(Cl)c(-n2ncc3cc(N)ccc32)cc1F` [Example 13, 4-(5-amino-1H-indazol-1-yl)-5-chloro-2-fluoro-N-(methylsulfonyl)benzamide]: the IC50 was above 10 µM.

In the case of `Cc1nn(-c2cc(F)c(C(=O)NS(C)(=O)=O)cc2Cl)c2ccc([N+](=O)[O-])cc12` [Example 14, 5-chloro-2-fluoro-4-(3-methyl-5-nitro-1H-indazol-1-yl)-N-(methylsulfonyl)benzamide], the half-inhibitory concentration (IC50) is 3 to 10 µM.

Regarding `CS(=O)(=O)NC(=O)c1cc(Cl)c(-n2ncc3c(Cl)c(F)ccc32)cc1F` [Example 15, 5-chloro-4-(4-chloro-5-fluoro-1H-indazol-1-yl)-2-fluoro-N-(methylsulfonyl)benzamide], the half-inhibitory concentration (IC50) was 3.09 µM. To `CS(=O)(=O)NC(=O)c1cc(Cl)c(-n2nc(Cl)c3cc(O)ccc32)cc1F` [Example 16, 5-chloro-4-(3-chloro-5-hydroxy-1H-indazol-1-yl)-2-fluoro-N-(methylsulfonyl)benzamide] belongs above 10 µM; to `CS(=O)(=O)NC(=O)c1cc(Cl)c(-n2nc(Cl)c3cc(F)ccc32)cc1F` [Example 17, 5-chloro-4-(3-chloro-5-fluoro-1H-indazol-1-yl)-2-fluoro-N-(methylsulfonyl)benzamide], 0.476 µM; to `CS(=O)(=O)NC(=O)c1cc(Cl)c(-n2nc(Cl)c3cc(C(F)(F)F)ccc32)cc1F` [Example 18, 5-chloro-4-(3-chloro-5-(trifluoromethyl)-1H-indazol-1-yl)-2-fluoro-N-(methylsulfonyl)benzamide], 0.587 µM. To `CS(=O)(=O)NC(=O)c1cc(Cl)c(-n2nc(Br)c3cc(Cl)ccc32)cc1F` [Example 19, 4-(3-bromo-5-chloro-1H-indazol-1-yl)-5-chloro-2-fluoro-N-(methylsulfonyl)benzamide] belongs 0.216 µM; to `CS(=O)(=O)NC(=O)c1cc(Cl)c(-n2nc(Cl)c3cc(Br)ccc32)cc1F` [Example 21, 4-(5-bromo-3-chloro-1H-indazol-1-yl)-5-chloro-2-fluoro-N-(methylsulfonyl)benzamide], 0.175 µM; to `CS(=O)(=O)NC(=O)c1cc(Cl)c(-n2nc(C#N)c3cc(Br)ccc32)cc1F` [Example 22, 4-(5-bromo-3-cyano-1H-indazol-1-yl)-5-chloro-2-fluoro-N-(methylsulfonyl)benzamide], 0.966 µM. `CS(=O)(=O)NC(=O)c1cc(Cl)c(-n2nc(Cl)c3cc([N+](=O)[O-])ccc32)cc1F` [Example 23, 5-chloro-4-(3-chloro-5-nitro-1H-indazol-1-yl)-2-fluoro-N-(methylsulfonyl)benzamide]: the IC50 was found to be 0.365 µM. To `CS(=O)(=O)NC(=O)c1cc(Cl)c(-n2nc(Cl)c3cc(C4CC4)ccc32)cc1F` [Example 24, 5-chloro-4-(3-chloro-5-cyclopropyl-1H-indazol-1-yl)-2-fluoro-N-(methylsulfonyl)benzamide] belongs 0.28 µM; to `CS(=O)(=O)NC(=O)c1cc(Cl)c(-n2nc(-c3ccccc3)c3cc(C4CC4)ccc32)cc1F` [Example 26, 5-chloro-4-(5-cyclopropyl-3-phenyl-1H-indazol-1-yl)-2-fluoro-N-(methylsulfonyl)benzamide], 0.1 µM; to `CS(=O)(=O)NC(=O)c1cc(Cl)c(-n2nc(Cl)c3cc(Nc4ccccc4)ccc32)cc1F` [Example 27, 5-chloro-4-(3-chloro-5-(phenylamino)-1H-indazol-1-yl)-2-fluoro-N-(methylsulfonyl)benzamide], 7.71 µM. With `CS(=O)(=O)NC(=O)c1cc(Cl)c(-n2nc(Cl)c3cc(OCc4ccccc4)ccc32)cc1F` [Example 28, 4-(5-(benzyloxy)-3-chloro-1H-indazol-1-yl)-5-chloro-2-fluoro-N-(methylsulfonyl)benzamide] the figure was 0.049 µM; with `CS(=O)(=O)NC(=O)c1cc(Cl)c(-n2ncc3c(Cl)c(OCc4ccccc4)ccc32)cc1F` [Example 29, 4-(5-(benzyloxy)-4-chloro-1H-indazol-1-yl)-5-chloro-2-fluoro-N-(methylsulfonyl)benzamide], 0.786 µM; with `Cc1nn(-c2cc(F)c(C(=O)NS(C)(=O)=O)cc2Cl)c2ccc(OCc3ccccc3)cc12` [Example 30, 4-(5-(benzyloxy)-3-methyl-1H-indazol-1-yl)-5-chloro-2-fluoro-N-(methylsulfonyl)benzamide], 0.247 µM. For `CS(=O)(=O)NC(=O)c1cc(Cl)c(-n2nc(Cl)c3c(Cl)c(OCc4ccc(F)cc4)ccc32)cc1F` [Example 31, 5-chloro-4-(3,4-dichloro-5-((4-fluorobenzyl)oxy)-1H-indazol-1-yl)-2-fluoro-N-(methylsulfonyl)benzamide], the IC50 stood at 1.51 µM. With `CS(=O)(=O)NC(=O)c1cc(Cl)c(-n2nc(Cl)c3c(Cl)c(OCc4ccccc4F)ccc32)cc1F` [Example 32, 5-chloro-4-(3,4-dichloro-5-((2-fluorobenzyl)oxy)-1H-indazol-1-yl)-2-fluoro-N-(methylsulfonyl)benzamide] the figure was 0.158 µM; with `CC(Oc1ccc2c(c1)c(Cl)nn2-c1cc(F)c(C(=O)NS(C)(=O)=O)cc1Cl)c1ccccc1` (stereo not drawn) [Example 33, 5-chloro-4-(3-chloro-5-(1-phenylethoxy)-1H-indazol-1-yl)-2-fluoro-N-(methylsulfonyl)benzamide], 0.214 µM; with `CS(=O)(=O)NC(=O)c1cc(Cl)c(-n2nc(Cl)c3cc(OCC4CCCCC4)ccc32)cc1F` [Example 34, 5-chloro-4-(3-chloro-5-(cyclohexylmethoxy)-1H-indazol-1-yl)-2-fluoro-N-(methylsulfonyl)benzamide], 0.211 µM. To `CS(=O)(=O)NC(=O)c1cc(Cl)c(-n2nc(Cl)c3cc(OCc4ccc5ccccc5c4)ccc32)cc1F` [Example 35, 5-chloro-4-(3-chloro-5-(naphthalen-2-ylmethoxy)-1H-indazol-1-yl)-2-fluoro-N-(methylsulfonyl)benzamide] belongs 0.076 µM. To `CS(=O)(=O)NC(=O)c1cc(Cl)c(-n2nc(Cl)c3cc(OCc4ccc(F)cc4)ccc32)cc1F` [Example 36, 5-chloro-4-(3-chloro-5-((4-fluorobenzyl)oxy)-1H-indazol-1-yl)-2-fluoro-N-(methylsulfonyl)benzamide] belongs 0.087 µM; to `CS(=O)(=O)NC(=O)c1cc(Cl)c(-n2nc(Cl)c3cc(OCc4ccccc4F)ccc32)cc1F` [Example 37, 5-chloro-4-(3-chloro-5-((2-fluorobenzyl)oxy)-1H-indazol-1-yl)-2-fluoro-N-(methylsulfonyl)benzamide], 0.159 µM; to `CS(=O)(=O)NC(=O)c1cc(Cl)c(-n2nc(Cl)c3cc(OCc4cccc(F)c4)ccc32)cc1F` [Example 38, 5-chloro-4-(3-chloro-5-((3-fluorobenzyl)oxy)-1H-indazol-1-yl)-2-fluoro-N-(methylsulfonyl)benzamide], 0.098 µM.
